# Columns and labels:
# Jurkat T cells = assay: Mitochondrial transmembrane potential (ΔΨm) in Jurkat T cells, TMRM flow cytometry with oligomycin (Example 1); assay type: cell-based; conditions: relative to negative controls
# Source text: Objective. […] Model. The Jurkat T cell model is commonly used to study the potential effects of compounds on T cells in vitro. This cell line allows investigation of stimuli and mechanisms that regulate T cell mitochondrial function and survival. As T cells, Jurkats have a lymphocyte appearance and replicate in culture in suspension. They contain respiring mitochondria and as such response to mitochondrial uncouplers such as niclosamide may be assessed. Uncoupling is identified and quantified by a detecting a drop in the electrochemical gradient across the mitochondrial inner membrane (ΔΨm) that is not associated with a corresponding increase in oxidative phosphorylation. […] Cell culture. Jurkat T cells were purchased from the American Type Culture Collection (Manassas, Va.) and sub-cultured according to instructions from the supplier. Prior to experiments, cells were cultured in RPMI 1640 containing 10% FBS-HI, 50 units penicillin/mL and 50 μg streptomycin/mL, and maintained in log phase prior to experimental setup. […] TMRM has been described as one of the best fluorescent dyes for dynamic and in situ quantitative measurements because it is rapidly and reversibly taken up by live cells and mitochondria. […] Ratios of the fluorescence intensity of each treated sample to the control sample mean were then calculated as a measure of relative decrease in ΔΨm. […]
# TNBS-induced colitis = assay: TNBS colitis in mice, niclosamide suspension administered rectally as enema (Example 9); assay type: in vivo, male Balb/c mice
# Source text: Model: Intra-rectal administration of trinitrobenzene sulfonic acid (TNBS) to mice results in colitis. TNBS elicits cell-mediated immune responses and induces transmural inflammation in the gut with morphological and histopathological features similar to those of human inflammatory bowel disease. TNBS induces diffuse colonic inflammation, characterized by increased leukocyte infiltration, edema, and ulceration. It is very well reported that administration of TNBS is associated with predominant activation of Th1-mediated immune response manifested by increased cytokines such as interferon-γ (IFN-γ), tumor necrosis factor-α (TNF-α) and interleukin-17A (IL-17A) as well as dense infiltration of CD4+ T cells. Disease activity in the TNBS model can be determined by loss of body weight, histopathological evaluation of the colon showing evidence of inflammatory damage and evidence of pro-inflammatory cytokines detected in colon tissue. Animals and Treatments: Studies of TNBS colitis were performed in 8- to 12-week-old male Balb/c mice (Jackson Laboratories, stock number 000651). […] Weight changes were recorded daily and tissues were collected for histologic study and RNA analysis at the end of the study. […] Gene expression was calculated using the ΔΔCt algorithm.
# [1] = Colon concentration in mice compared with uncoupling concentration (Example 6); assay type: in vivo
# Description: Model. Results from Examples 2 and 5 are used together. […] This concentration is directly compared to the dose-response data to determine if efficacious exposure is sufficient to induce mitochondrial uncoupling in colon.
# Pharmacokinetic study design.
# Calculation of target coverage. The average area under the colon concentration versus time curve (AUC) and the peak concentration is calculated and is plotted and is graphed.
smiles,measurement,setting,value
"O=C(Nc1ccc([N+](=O)[O-])cc1Cl)c1cc(Cl)ccc1O [Niclosamide, 5-chloro-N-(2-chloro-4-nitrophenyl)-2-hydroxybenzamide]",change in ΔΨm in Jurkat cells,"Jurkat T cells; 1-500 μM, 60 minutes, oligomycin present, TMRM",dose-related decrease
same,concentrations of niclosamide that significantly decreased ΔΨm (p<0.05),Jurkat T cells; Jurkat cells,≥ 5 µM
same,body weight,"TNBS-induced colitis; rectal 30 mg/kg on days 1 and 2, TNBS-induced colitis",recovery of body weight
same,colitis score (H&E analysis of colon biopsies),"TNBS-induced colitis; rectal 30 mg/kg on days 1 and 2, compared to vehicle control or TNBS only",significantly lower
same,concentration in the colon,[1]; single rectal dose 1 mg/kg (below maximal efficacy),< 5 µM
same,colon peak concentration,[1]; single rectal dose 3 mg/kg (therapeutic dosage),> 5 µM
